# Data taken from patent US11111247B2, “Pyrazolopyrimidine compounds and uses thereof” (Incyte Corporation, priority 2018, dated 2021).
# Like-named read-outs stand apart in the source and are kept apart here.
# How the values were obtained:
# [1] = target: ALK2 (Homo sapiens (Human), UniProt Q04771); assay: ALK2 Cellular Assay (phospho SMAD1 HTRF, BMP-7 stimulated HeLa cells); type: cell-based; conditions: read-out: ALK2 Cellular Assay PSMAD
# Method in brief: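 HeLa cells pre-treated with compound (highest final 3 μM) for 60 min at 37° C, then stimulated with 200 ng/ml BMP-7 for 30 min. Phospho-SMAD1 (S463/S465) quantified by HTRF after overnight room-temperature incubation.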
# [2] = target: FGFR2 (UP) (Homo sapiens (Human), UniProt P21802); assay: FGFR Enzymatic Assay, FGFR2 un-phosphorylated
# [3] = target: FGFR3 (UP) (Homo sapiens (Human), UniProt P22607); assay: FGFR Enzymatic Assay, FGFR3 un-phosphorylated
# [4] = target: ALK2 (aa 147-end) (Homo sapiens (Human), UniProt Q04771); assay: ALK2 HTRF Assay; type: biochemical
# [5] = target: FGFR1 (UP) (Homo sapiens (Human), UniProt P11362); assay: FGFR Enzymatic Assay, FGFR1 un-phosphorylated
# Procedure: The inhibitor potency of the exemplified compounds was determined in an enzyme discontinuous assay that measures peptide phosphorylation using FRET measurements to detect product formation. Inhibitors were serially diluted in DMSO and a volume of 0.2 μL was transferred to the wells of a 384-well plate. For the isoforms of FGFR (−1, −2, −3 wild-type and mutant isoforms, −4) including phosphorylated (P) and un-phosphorylated (UP) proteins, a 5 μL/well volume of enzyme diluted in assay buffer (50 mM HEPES, 10 mM MgCl2, 1 mM EGTA, 0.01% Tween-20, 5 mM DTT, pH 7.5) was added to the plate and pre-incubated with inhibitor for 5 to 15 minutes at ambient temperature. Appropriate controls (enzyme blank and enzyme with no inhibitor) were included on the plate. The reaction was initiated by the addition of a 5 μL/well volume containing both biotinylated [sequence] […] The plate was allowed to equilibrate for −10 minutes at ambient temperature before scanning on a PheraStar plate reader (BMG Labtech) instrument.
# Either GraphPad prism or XLfit was used to analyze the data. The IC50 values were derived by fitting the data to a four parameter logistic equation producing a sigmoidal dose-response curve with a variable Hill coefficient. Prism equation: Y=Bottom+(Top−Bottom)/(1+10^((LogIC50−X)*Hill slope)); XLfit equation: Y=(A+((B−A)/(1+((X/C)^D)))) where X is the logarithm of inhibitor concentration and Y is the response.
# [6] = HeLa cells, 200 ng/ml BMP-7, Phospho SMAD1 (S463/S465) HTRF
# [7] = read-out: ALK2 3 μM IC50, 3 uM ATP
# [8] = read-out: ALK2 100 μM IC50, 100 uM ATP
# [9] = read-out: ALK2 1 mM IC50, 1 mM ATP
# [10] = read-out: FGFR1 (UP) IC50, un-phosphorylated enzyme, ATP near or below Km
# [11] = read-out: FGFR2 (UP) IC50, un-phosphorylated enzyme, ATP near or below Km
# [12] = read-out: FGFR3 (UP) IC50, un-phosphorylated enzyme, ATP near or below Km
# Sequence of FGFR1 (UP) (P11362 22-822): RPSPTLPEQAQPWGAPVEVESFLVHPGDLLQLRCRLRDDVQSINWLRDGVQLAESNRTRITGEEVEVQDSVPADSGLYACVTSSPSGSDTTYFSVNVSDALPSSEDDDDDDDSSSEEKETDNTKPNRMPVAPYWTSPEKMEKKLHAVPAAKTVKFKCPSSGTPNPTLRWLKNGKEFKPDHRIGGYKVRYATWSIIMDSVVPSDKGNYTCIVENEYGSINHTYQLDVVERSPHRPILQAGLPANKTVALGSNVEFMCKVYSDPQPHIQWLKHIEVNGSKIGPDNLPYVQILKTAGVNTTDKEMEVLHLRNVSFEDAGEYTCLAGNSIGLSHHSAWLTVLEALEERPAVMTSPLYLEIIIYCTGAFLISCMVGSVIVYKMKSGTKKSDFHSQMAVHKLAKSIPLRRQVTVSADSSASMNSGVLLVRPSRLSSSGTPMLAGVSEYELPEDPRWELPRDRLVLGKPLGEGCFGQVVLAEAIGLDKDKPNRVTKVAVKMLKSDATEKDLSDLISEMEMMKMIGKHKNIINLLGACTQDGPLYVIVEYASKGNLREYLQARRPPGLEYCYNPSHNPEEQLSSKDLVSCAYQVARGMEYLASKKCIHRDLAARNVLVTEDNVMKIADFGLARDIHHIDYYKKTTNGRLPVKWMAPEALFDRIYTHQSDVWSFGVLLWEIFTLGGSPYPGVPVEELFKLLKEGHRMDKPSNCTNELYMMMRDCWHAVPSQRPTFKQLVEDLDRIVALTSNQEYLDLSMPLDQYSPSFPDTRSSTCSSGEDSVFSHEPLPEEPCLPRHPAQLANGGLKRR
# Sequence of FGFR2 (UP) (P21802 22-821): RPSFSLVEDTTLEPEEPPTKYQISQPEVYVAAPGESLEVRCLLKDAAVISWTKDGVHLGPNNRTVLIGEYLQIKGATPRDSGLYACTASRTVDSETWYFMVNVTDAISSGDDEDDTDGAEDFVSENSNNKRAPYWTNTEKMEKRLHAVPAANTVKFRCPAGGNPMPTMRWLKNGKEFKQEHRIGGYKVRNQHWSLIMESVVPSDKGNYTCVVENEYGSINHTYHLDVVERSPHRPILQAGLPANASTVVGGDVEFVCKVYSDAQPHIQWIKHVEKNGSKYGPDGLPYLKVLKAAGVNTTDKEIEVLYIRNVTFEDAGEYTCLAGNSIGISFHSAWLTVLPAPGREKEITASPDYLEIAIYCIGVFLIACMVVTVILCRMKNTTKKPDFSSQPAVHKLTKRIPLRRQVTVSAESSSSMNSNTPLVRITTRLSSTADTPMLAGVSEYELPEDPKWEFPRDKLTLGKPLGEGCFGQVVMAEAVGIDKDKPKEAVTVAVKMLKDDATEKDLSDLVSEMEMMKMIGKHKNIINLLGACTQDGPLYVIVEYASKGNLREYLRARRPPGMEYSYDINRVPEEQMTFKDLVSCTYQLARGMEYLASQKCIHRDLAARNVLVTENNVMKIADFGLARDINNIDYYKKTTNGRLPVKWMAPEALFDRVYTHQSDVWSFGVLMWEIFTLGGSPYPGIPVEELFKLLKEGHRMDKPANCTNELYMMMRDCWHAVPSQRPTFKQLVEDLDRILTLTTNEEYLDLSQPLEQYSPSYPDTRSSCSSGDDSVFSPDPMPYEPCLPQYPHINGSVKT
# Sequence of ALK2 (aa 147-end) (Q04771 147-509): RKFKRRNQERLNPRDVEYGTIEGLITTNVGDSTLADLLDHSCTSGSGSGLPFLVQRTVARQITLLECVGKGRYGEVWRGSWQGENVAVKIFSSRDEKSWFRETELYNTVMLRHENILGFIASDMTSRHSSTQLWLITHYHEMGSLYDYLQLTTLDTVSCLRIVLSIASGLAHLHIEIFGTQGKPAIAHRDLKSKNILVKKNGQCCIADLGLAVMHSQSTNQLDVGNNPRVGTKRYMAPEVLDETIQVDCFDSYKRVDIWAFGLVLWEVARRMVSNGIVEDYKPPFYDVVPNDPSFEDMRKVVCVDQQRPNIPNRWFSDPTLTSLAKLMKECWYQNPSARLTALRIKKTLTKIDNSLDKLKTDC
# Sequence of FGFR3 (UP) (P22607 23-806): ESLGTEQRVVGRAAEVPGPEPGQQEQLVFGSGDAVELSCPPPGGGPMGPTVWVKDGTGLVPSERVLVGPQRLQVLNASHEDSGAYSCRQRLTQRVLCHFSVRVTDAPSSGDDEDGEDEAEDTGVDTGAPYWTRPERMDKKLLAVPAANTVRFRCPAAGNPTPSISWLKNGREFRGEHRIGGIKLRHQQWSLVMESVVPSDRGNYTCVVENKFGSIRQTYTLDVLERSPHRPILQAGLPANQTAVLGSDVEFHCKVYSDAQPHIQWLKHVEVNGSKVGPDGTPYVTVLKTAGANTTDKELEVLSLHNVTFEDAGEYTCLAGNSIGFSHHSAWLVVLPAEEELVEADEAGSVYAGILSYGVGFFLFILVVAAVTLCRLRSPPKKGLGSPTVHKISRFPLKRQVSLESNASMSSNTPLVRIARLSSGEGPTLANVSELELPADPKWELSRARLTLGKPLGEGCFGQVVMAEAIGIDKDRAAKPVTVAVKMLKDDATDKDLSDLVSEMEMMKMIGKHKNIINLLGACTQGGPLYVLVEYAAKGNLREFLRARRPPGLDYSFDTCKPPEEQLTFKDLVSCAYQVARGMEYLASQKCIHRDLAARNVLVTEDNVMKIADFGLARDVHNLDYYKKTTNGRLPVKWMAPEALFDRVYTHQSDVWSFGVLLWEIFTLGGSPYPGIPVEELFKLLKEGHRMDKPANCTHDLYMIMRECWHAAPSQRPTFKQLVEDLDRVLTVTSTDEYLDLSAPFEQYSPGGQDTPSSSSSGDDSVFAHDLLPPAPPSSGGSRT
# Sequence of ALK2 (Q04771 21-509): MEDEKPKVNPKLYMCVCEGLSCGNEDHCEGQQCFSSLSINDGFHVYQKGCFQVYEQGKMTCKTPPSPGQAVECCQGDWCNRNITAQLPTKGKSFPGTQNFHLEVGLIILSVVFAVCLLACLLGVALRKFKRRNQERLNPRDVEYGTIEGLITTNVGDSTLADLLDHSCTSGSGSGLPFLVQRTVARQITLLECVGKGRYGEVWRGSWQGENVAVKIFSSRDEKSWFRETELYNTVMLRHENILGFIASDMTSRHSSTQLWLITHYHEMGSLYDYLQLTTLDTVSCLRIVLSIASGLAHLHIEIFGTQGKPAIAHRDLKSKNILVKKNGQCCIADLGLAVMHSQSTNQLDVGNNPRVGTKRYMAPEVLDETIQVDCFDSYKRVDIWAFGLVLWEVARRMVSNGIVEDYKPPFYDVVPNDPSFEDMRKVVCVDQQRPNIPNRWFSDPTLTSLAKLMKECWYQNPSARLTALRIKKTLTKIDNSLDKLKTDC
"IC50 [1, 6] [nM]",IC50 [2] [nM],IC50 [3] [nM],"IC50 ([4]; ALK2 1 mM IC50, 1 mM ATP) [nM]","IC50 [4, 7] [nM]","IC50 [4, 8] [nM]",IC50 [5] [nM],"IC50 [4, 9] [nM]","IC50 [5, 10] [nM]","IC50 [2, 11] [nM]","IC50 [3, 12] [nM]","IC50 ([4]; ALK2 3 μM IC50, 3 uM ATP) [nM]",Structure (SMILES),IC50 [1] [nM]
< 100,,,,< 100,< 100,,< 100,,< 100,< 100,,"COC(=O)N1C[C@@H](C)N(c2ncc3[nH]nc(-c4ccc(N5CCN[C@H](C)C5)nc4)c3n2)[C@@H](C)C1 [Example 17, Methyl (3R,5S)-3,5-dimethyl-4-(3-(6-((R)-3-methylpiperazin-1-yl)pyridin-3-yl)-1H-pyrazolo[4,3-d]pyrimidin-5-yl)piperazine-1-carboxylate]",
100 to 500,500 to 2000,,100 to 500,< 100,< 100,500 to 2000,,,,> 2000,,"C[C@@H]1CN(c2ccc(-c3n[nH]c4cnc(N5CC6CCC5CN6C(=O)N5CCCC5)nc34)cn2)CCN1 (stereo partly drawn) [Example 20, (5-(3-(6-((R)-3-Methylpiperazin-1-yl)pyridin-3-yl)-1H-pyrazolo[4,3-d]pyrimidin-5-yl)-2,5-diazabicyclo[2.2.2]octan-2-yl)(pyrrolidin-1-yl)methanone]",
500 to 2000,,,100 to 500,< 100,< 100,,,> 2000,> 2000,> 2000,,"C[C@@H]1CN(c2ccc(-c3n[nH]c4cnc(N5C[C@@H]6C[C@H]5CN6C(=O)N5CCCC5)nc34)cn2)CCN1 [Example 21, ((1S,4S)-5-(3-(6-((R)-3-Methylpiperazin-1-yl)pyridin-3-yl)-1H-pyrazolo[4,3-d]pyrimidin-5-yl)-2,5-diazabicyclo[2.2.1]heptan-2-yl)(pyrrolidin-1-yl)methanone]",
100 to 500,100 to 500,100 to 500,100 to 500,< 100,< 100,100 to 500,,,,,,"COC(=O)N1C[C@@H](C)N(c2ncc3[nH]nc(-c4ccc(N5CCN(C)CC5)c(F)c4)c3n2)[C@@H](C)C1 [Example 23, Methyl (3R,5S)-4-(3-(3-fluoro-4-(4-methylpiperazin-1-yl)phenyl)-1H-pyrazolo[4,3-d]pyrimidin-5-yl)-3,5-dimethylpiperazine-1-carboxylate]",
100 to 500,500 to 2000,100 to 500,100 to 500,< 100,< 100,,,> 2000,,,,"COC(=O)N1C[C@@H](C)N(c2ncc3[nH]nc(-c4ccc(N5CCO[C@H](C)C5)nc4)c3n2)[C@@H](C)C1 [Example 32, Methyl (3R,5S)-3,5-dimethyl-4-(3-(6-((R)-2-methylmorpholino)pyridin-3-yl)-1H-pyrazolo[4,3-d]pyrimidin-5-yl)piperazine-1-carboxylate]",
500 to 2000,500 to 2000,,,,,,> 2000,> 2000,,,100 to 500,"COC(=O)N1C[C@@H](C)N(c2ncc3[nH]nc(-c4ccc(N5CCC(O)CC5)cc4)c3n2)[C@@H](C)C1 [Example 34, Methyl (3R,5S)-4-(3-(4-(4-hydroxypiperidin-1-yl)phenyl)-1H-pyrazolo[4,3-d]pyrimidin-5-yl)-3,5-dimethylpiperazine-1-carboxylate]",

# More lines, now with the values behind:
Structure (SMILES),"IC50 [1, 6] [nM]",IC50 [2] [nM],IC50 [3] [nM],"IC50 ([4]; ALK2 1 mM IC50, 1 mM ATP) [nM]","IC50 [4, 7] [nM]","IC50 [4, 8] [nM]",IC50 [5] [nM],"IC50 [4, 9] [nM]","IC50 [5, 10] [nM]","IC50 [2, 11] [nM]","IC50 [3, 12] [nM]","IC50 ([4]; ALK2 3 μM IC50, 3 uM ATP) [nM]",IC50 [1] [nM]
"C[C@@H]1CN(c2ccc(-c3n[nH]c4cnc(N5C6CCC5CC6)nc34)cn2)CCN1 [Example 3, 5-(7-Azabicyclo[2.2.1]heptan-7-yl)-3-(6-((R)-3-methylpiperazin-1-yl)pyridin-3-yl)-1H-pyrazolo[4,3-d]pyrimidine]",100 to 500,100 to 500,100 to 500,100 to 500,< 100,< 100,500 to 2000,,,,,,
"COCC(=O)N1C[C@@H](C)N(c2ncc3[nH]nc(-c4ccc(N5CCN[C@H](C)C5)nc4)c3n2)[C@@H](C)C1 [Example 6, 1-((3R,5S)-3,5-Dimethyl-4-(3-(6-((R)-3-methylpiperazin-1-yl)pyridin-3-yl)-1H-pyrazolo[4,3-d]pyrimidin-5-yl)piperazin-1-yl)-2-methoxyethan-1-one]",100 to 500,500 to 2000,500 to 2000,,< 100,< 100,,< 100,> 2000,,,,
"C[C@@H]1CN(c2ccc(-c3n[nH]c4cnc(N5[C@H](C)CN(C(=O)N6CCC(F)C6)C[C@@H]5C)nc34)cn2)CCN1 (stereo partly drawn) [Example 10, ((3R,5S)-3,5-Dimethyl-4-(3-(6-((R)-3-methylpiperazin-1-yl)pyridin-3-yl)-1H-pyrazolo[4,3-d]pyrimidin-5-yl)piperazin-1-yl)(3-fluoropyrrolidin-1-yl)methanone]",< 100,500 to 2000,500 to 2000,,< 100,< 100,500 to 2000,< 100,,,,,
"CCOC(=O)N1C[C@@H](C)N(c2ncc3[nH]nc(-c4ccc(N5CCN[C@H](C)C5)nc4)c3n2)[C@@H](C)C1 [Example 11, Ethyl (3R,5S)-3,5-dimethyl-4-(3-(6-((R)-3-methylpiperazin-1-yl)pyridin-3-yl)-1H-pyrazolo[4,3-d]pyrimidin-5-yl)piperazine-1-carboxylate]",100 to 500,500 to 2000,500 to 2000,,< 100,< 100,500 to 2000,< 100,,,,,
"C[C@@H]1CN(c2ccc(-c3n[nH]c4cnc(N5[C@H](C)CN(C(=O)OCCF)C[C@@H]5C)nc34)cn2)CCN1 [Example 12, 2-Fluoroethyl (3R,5S)-3,5-dimethyl-4-(3-(6-((R)-3-methylpiperazin-1-yl)pyridin-3-yl)-1H-pyrazolo[4,3-d]pyrimidin-5-yl)piperazine-1-carboxylate]",< 100,100 to 500,100 to 500,,< 100,< 100,500 to 2000,< 100,,,,,
"C[C@@H]1CN(c2ccc(-c3n[nH]c4cnc(N5[C@@H]6CC[C@H]5CN(C(=O)C5CC5)C6)nc34)cn2)CCN1 [Example 13, Cyclopropyl((1R,5S)-8-(3-(6-((R)-3-methylpiperazin-1-yl)pyridin-3-yl)-1H-pyrazolo[4,3-d]pyrimidin-5-yl)-3,8-diazabicyclo[3.2.1]octan-3-yl)methanone]",,100 to 500,100 to 500,100 to 500,< 100,< 100,500 to 2000,,,,,,100 to 500
"C[C@@H]1CN(c2ccc(-c3n[nH]c4cnc(N5[C@@H]6CC[C@H]5CN(C(=O)N5CCCC5)C6)nc34)cn2)CCN1 [Example 14, ((1R,5S)-8-(3-(6-((R)-3-Methylpiperazin-1-yl)pyridin-3-yl)-1H-pyrazolo[4,3-d]pyrimidin-5-yl)-3,8-diazabicyclo[3.2.1]octan-3-yl)(pyrrolidin-1-yl)methanone]",,,,100 to 500,< 100,< 100,,,> 2000,> 2000,> 2000,,100 to 500
"C[C@@H]1CCC[C@H](C)N1c1ncc2[nH]nc(-c3ccc(N4CCN(C)CC4)cc3)c2n1 [Example 16, 5-((2R,6S)-2,6-Dimethylpiperidin-1-yl)-3-(4-(4-methylpiperazin-1-yl)phenyl)-1H-pyrazolo[4,3-d]pyrimidine]",500 to 2000,100 to 500,100 to 500,100 to 500,< 100,,100 to 500,,,,,,
